Measured values taken from patent EP0942721B1, “LIQUID COMPOSITION COMPRISING AN HIV PROTEASE INHIBITOR AND A C12-C18 FATTY ACID” (Abbott Laboratories, priority 1996, dated 1998).

Assay: Oral bioavailability studies in dogs
Type: in vivo, beagle dogs
Settings: dog, administered as an unformulated solid in a capsule dosage form, 5 mg/kg oral dose in dogs
Protocol: Dogs (beagle dogs, mixed sexes, weighing 7-14 kg) were fasted overnight prior to dosing, but were permitted water ad libitum. Each dog received a 100 µg/kg subcutaneous dose of histamine approximately 30 minutes prior to dosing. Each dog received a single solid dosage form corresponding to a 5 mg/kg dose of the drug. The dose was followed by approximately 10 milliliters of water. Blood samples were obtained from each animal prior to dosing and 0.25, 0.5, 1.0,1.5, 2, 3, 4, 6, 8, 10 and 12 hours after drug administration. The plasma was separated from the red cells by centrifugation and frozen (-30°C) until analysis. Concentrations of parent drug were determined by reverse phase HPLC with low wavelength UV detection following liquid-liquid extraction of the plasma samples. The parent drug area under the curve was calculated by the trapezoidal method over the time course of the study. The absolute bioavailability of each test composition was calculated by comparing the area under the curve after oral dosing to that obtained from a single intravenous dose. Each capsule or capsule composition was evaluated in a group containing at least six dogs; the values reported are averages for each group of dogs.

Structure (SMILES)	bioavailability at 12 h (in vivo) [%]	bioavailability (both sexes, beagle, plasma) [%]
CC(C)c1nc(CN(C)C(=O)N[C@H](C(=O)N[C@@H](Cc2ccccc2)C[C@H](O)[C@H](Cc2ccccc2)NC(=O)OCc2cncs2)C(C)C)cs1 [bis-tosylate of compound III]	< 2	
CC(C)c1nc(CN(C)C(=O)N[C@H](C(=O)N[C@@H](Cc2ccccc2)C[C@H](O)[C@H](Cc2ccccc2)NC(=O)OCc2cncs2)C(C)C)cs1 [compound III, (2S,3S,5S)-5-(N-(N-((N-Methyl-N-((2-isopropyl-4-thiazolyl)methyl)-amino)carbonyl)valinyl)amino)-2-(N-((5-thiazolyl)methoxycarbonyl)amino)-1,6-diphenyl-3-hydroxyhexane]		< 2
